In the assay the target is T1, TcMCU-EMRE (TcMCU-EMREEM2) (Tribolium castaneum, UniProt D6WIX5).
T1 construct: gene MCU; MCU without N-terminal domain (residues 1-168 removed), covalently fused to EMRE by flexible peptide linker; tetramer; Venus fusion removed by PreScission cleavage; expressed in Expi293 cells; purified, reconstituted in liposomes and planar bilayer; with Essential MCU regulator, mitochondrial
T1 sequence (D6WIX5 169-367): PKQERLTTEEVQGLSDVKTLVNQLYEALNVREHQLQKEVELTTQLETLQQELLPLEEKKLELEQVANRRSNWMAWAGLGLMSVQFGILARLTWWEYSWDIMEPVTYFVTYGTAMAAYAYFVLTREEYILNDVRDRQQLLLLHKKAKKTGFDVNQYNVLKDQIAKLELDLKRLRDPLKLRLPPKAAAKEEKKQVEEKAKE
T1 sequence (D6X268 1-90 partner): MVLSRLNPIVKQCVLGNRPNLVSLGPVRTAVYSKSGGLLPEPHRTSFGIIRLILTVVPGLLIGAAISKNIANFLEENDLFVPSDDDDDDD
The assay is described as follows: planar lipid bilayer electrophysiology, inhibition of macroscopic Ca2+ currents. Conditions: symmetric 40 mM CaCl2, -160 mV, pH 7.6, 22-24 C; RuRed titrated in trans chamber with 1 uM RuRed in cis; IMS-side blocker. The assay is classed as biochemical.

Consider one molecule from PMC9757755, “Mechanisms of ion selectivity and throughput in the mitochondrial calcium uniporter” (Science Advances, 2022).

The IC50 is the midpoint of a concentration-inhibition curve.

Turning to `Cl.Cl.Cl.Cl.Cl.Cl.N.N.N.N.N.N.N.N.N.N.N.N.N.N.[O-2].[O-2].[Ru+3].[Ru+3].[Ru+4]` [ruthenium red], the half-maximal inhibitory concentration (IC50) was about 40 nM.
